The values that follow come from patent US20250034216A1, “STEREOSELECTIVE COVALENT LIGANDS FOR ONCOGENIC AND IMMUNOLOGICAL PROTEINS” (The Scripps Research Institute, priority 2021, published 2025).

Each structure is given as a SMILES string.

The target in one test is T1, CRYBG1_C1574 (Homo sapiens, UniProt Q9Y4K1).
T1 construct: endogenous in cells; host or cells: 22Rv1
Briefly: IA-DTB cysteine engagement. Particulars: 22Rv1 cells, 20 μM probe, 1 h, relative to DMSO. It counts as binding. In outline:
(§1)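 Competitive chemoproteomics: residual cysteine reactivity toward IA-DTB in lysates from probe-treated cells was quantified by TMT reporter ions relative to DMSO-treated controls. Replicates sharing cell line, probe, concentration and duration were averaged.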

For a further test, the target named is T2, ZBED4_C599 (Homo sapiens, UniProt O75132).
T2 construct: endogenous in cells; host or cells: 22Rv1
T2 sequence (O75132 1-1171): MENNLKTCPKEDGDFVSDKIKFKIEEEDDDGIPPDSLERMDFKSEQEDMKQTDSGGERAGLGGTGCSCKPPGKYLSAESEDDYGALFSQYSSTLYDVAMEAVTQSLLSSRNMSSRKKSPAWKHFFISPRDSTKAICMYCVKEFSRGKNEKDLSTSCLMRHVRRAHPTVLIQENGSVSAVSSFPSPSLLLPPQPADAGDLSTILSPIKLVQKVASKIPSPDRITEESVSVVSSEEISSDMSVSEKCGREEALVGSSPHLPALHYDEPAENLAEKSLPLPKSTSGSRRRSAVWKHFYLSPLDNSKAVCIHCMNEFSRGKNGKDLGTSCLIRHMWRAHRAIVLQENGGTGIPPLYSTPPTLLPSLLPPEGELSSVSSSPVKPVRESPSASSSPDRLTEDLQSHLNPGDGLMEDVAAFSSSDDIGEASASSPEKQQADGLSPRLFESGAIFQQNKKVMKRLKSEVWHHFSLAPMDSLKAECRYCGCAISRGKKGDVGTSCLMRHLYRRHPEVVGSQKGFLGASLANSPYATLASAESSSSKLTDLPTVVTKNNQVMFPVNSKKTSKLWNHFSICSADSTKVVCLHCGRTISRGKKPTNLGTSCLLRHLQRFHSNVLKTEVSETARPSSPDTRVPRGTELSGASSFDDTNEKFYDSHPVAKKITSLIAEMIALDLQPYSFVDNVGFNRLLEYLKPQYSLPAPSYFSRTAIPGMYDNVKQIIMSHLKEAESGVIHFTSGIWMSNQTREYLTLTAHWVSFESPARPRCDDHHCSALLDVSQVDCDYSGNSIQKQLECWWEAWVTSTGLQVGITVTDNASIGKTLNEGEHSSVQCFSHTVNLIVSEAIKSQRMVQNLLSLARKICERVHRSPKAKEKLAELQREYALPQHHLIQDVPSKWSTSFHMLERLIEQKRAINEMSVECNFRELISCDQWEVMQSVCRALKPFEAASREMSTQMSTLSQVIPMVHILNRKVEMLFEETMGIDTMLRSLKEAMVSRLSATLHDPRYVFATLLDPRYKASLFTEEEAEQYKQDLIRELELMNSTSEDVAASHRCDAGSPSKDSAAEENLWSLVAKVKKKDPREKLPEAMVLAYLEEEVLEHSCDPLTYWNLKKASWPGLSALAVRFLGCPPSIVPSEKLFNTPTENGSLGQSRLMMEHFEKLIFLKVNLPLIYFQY
Briefly: IA-DTB cysteine engagement. It counts as binding. Particulars: 22Rv1 cells, 20 μM probe, 1 h, relative to DMSO. In outline:
as §1

T1 sequence (Q9Y4K1 whole entry): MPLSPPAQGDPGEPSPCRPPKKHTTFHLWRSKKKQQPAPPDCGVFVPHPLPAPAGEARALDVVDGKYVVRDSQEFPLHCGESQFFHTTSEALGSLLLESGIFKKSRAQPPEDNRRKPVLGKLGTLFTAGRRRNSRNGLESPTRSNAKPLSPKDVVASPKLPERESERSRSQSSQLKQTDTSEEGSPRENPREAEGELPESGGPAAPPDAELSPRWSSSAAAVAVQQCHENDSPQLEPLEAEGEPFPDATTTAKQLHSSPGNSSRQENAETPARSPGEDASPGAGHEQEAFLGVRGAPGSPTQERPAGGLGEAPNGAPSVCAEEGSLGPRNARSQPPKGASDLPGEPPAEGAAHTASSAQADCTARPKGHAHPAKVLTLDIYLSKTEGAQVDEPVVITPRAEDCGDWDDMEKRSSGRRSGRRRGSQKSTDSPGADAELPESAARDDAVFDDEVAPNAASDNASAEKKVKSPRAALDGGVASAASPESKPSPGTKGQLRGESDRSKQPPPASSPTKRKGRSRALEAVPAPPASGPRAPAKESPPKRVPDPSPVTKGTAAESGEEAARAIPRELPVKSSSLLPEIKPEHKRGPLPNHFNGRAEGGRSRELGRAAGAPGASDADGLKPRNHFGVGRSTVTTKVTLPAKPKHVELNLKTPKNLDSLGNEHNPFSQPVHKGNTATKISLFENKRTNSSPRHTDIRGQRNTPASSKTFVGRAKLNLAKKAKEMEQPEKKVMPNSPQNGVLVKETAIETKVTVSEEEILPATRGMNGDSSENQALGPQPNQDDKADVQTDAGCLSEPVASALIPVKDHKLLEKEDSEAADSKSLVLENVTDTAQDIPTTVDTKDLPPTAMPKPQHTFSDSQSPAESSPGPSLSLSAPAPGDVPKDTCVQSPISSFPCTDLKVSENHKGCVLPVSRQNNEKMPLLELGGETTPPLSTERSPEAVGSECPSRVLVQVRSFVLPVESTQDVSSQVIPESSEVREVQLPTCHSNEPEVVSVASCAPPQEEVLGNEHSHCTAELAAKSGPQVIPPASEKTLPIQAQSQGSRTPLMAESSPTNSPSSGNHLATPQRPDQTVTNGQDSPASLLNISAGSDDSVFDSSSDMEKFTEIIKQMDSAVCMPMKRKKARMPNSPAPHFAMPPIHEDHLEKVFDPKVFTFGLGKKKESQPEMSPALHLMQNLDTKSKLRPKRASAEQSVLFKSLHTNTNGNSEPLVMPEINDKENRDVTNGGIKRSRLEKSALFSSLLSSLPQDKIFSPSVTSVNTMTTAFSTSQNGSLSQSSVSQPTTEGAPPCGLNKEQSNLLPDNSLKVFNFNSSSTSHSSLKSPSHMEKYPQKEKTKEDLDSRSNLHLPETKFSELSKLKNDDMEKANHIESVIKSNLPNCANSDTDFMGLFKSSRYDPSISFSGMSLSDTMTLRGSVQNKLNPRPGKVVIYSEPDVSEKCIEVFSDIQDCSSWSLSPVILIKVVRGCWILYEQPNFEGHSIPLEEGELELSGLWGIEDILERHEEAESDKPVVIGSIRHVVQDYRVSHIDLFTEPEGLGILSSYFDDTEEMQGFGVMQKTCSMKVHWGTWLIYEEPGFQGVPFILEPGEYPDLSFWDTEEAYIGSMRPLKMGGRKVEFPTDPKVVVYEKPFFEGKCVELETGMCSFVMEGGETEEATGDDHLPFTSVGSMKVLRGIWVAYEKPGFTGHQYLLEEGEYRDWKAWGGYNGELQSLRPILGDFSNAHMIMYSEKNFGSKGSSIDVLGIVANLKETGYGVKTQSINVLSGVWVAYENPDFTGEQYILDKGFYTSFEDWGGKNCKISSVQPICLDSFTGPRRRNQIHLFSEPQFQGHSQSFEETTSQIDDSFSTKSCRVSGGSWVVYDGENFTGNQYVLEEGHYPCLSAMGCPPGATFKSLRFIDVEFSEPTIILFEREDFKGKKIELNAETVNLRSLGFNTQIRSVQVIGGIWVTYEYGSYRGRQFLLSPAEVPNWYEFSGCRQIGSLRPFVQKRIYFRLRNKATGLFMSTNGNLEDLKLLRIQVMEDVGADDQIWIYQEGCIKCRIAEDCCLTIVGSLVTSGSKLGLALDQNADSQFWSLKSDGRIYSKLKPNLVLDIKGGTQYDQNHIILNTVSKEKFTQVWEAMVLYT

For `C=CC(=O)N1C[C@H](c2ccc(Br)cc2)[C@H]1C(=O)Nc1cccc2cccnc12` [MY-3A, (2S,3S)-1-acryloyl-3-(4-bromophenyl)-N-(quinolin-8-yl)azetidine-2-carboxamide], at CRYBG1_C1574, the “% engagement CRYBG1_C1574” value is 28.5%. For the same compound, the “% engagement ZBED4_C599” value at ZBED4_C599 is on record as 21%.
For the compound `C=CC(=O)N1C[C@@H](c2ccc(Br)cc2)[C@H]1C(=O)Nc1cccc2cccnc12` [MY-1A, (2S,3R)-1-acryloyl-3-(4-bromophenyl)-N-(quinolin-8-yl)azetidine-2-carboxamide], on CRYBG1_C1574, the “% engagement CRYBG1_C1574” value is reported as 23%. For the same compound, the “% engagement ZBED4_C599” value on ZBED4_C599 came to 16%.
On to `C=CC(=O)N1C[C@H](c2ccc(Br)cc2)[C@@H]1C(=O)Nc1cccc2cccnc12` [MY-1B, (2R,3S)-1-acryloyl-3-(4-bromophenyl)-N-(quinolin-8-yl)azetidine-2-carboxamide], for which the “% engagement CRYBG1_C1574” value on CRYBG1_C1574 was determined as 72%. Also, on ZBED4_C599, the “% engagement ZBED4_C599” value came out at 39%.
Taken in the same sequence, the figures for `C=CC(=O)N1C[C@H](c2ccc(Br)cc2)[C@H]1C(=O)Nc1cccc2cccnc12` [MY-3B, (2S,3S)-1-acryloyl-3-(4-bromophenyl)-N-(quinolin-8-yl)azetidine-2-carboxamide] were 13.5% and 83.5%.
